Measured values published in patent US8071558B2, “Application of D-psicose to suppression of abnormal circadian increase in blood glucose level” (Rare Sugar Production Technical Research Laboratories, LLC., priority 2005, dated 2011).
Values belong to the compound of their own block, whether it stands above or below them.

Key:
sucrase = biological target: T1, sucrase (Rattus norvegicus, UniProt P23739); experiment: Sucrose administration experiment (inhibition of sucrase in vivo), plasma glucose; conditions: rats; for Plasma glucose level, 0 min: before sucrose 2 g/kg + test sugar 200 mg/kg; for Plasma glucose level, 30 min / Plasma glucose level, 60 min / Plasma glucose level, 90 min / Plasma glucose level, 120 min / ΔAUC of plasma glucose level: sucrose 2 g/kg + test sugar 200 mg/kg
T1 construct: from tissue; host or cells: small intestine of live male Wistar rats (oral sugar load)
Method: Sucrose 2 g/kg+L-arabinose 200 mg/kg (SA)
Sucrose 2 g/kg+D-xylose 200 mg/kg (SX)
Sucrose 2 g/kg+D-fructose 200 mg/kg (SF)
Sucrose 2 g/kg+D-psicose 200 mg/kg (SP)
Sucrose 2 g/kg+(fructose 150 mg/kg+psicose 50 mg/kg) (SFP)

maltase = experiment: Maltose administration experiment (inhibition of maltase in vivo), plasma glucose; set-up: species or system rat; conditions: rats; for Plasma glucose level, 0 min: before maltose 2 g/kg + test sugar 200 mg/kg; for Plasma glucose level, 30 min / Plasma glucose level, 60 min / Plasma glucose level, 90 min / Plasma glucose level, 120 min / ΔAUC of plasma glucose level: maltose 2 g/kg + test sugar 200 mg/kg; for action to suppress the increase of blood glucose level: given simultaneously with maltose (experiment 2)
Method: (§1) Thirty-six male Wistar rats of age 6 months are divided into 6 groups. The following sugars were given to the rats in the individual groups after 12-hour fasting. Before the administration and 30, 60, 90, 120 and 180 minutes after the administration, blood is drawn from the tail vein, to assay plasma glucose and insulin concentration.
2. Maltose 2 g/kg+L-arabinose 200 mg/kg (MA)
3. Maltose 2 g/kg+D-xylose 200 mg/kg (MX)
4. Maltose 2 g/kg+D-fructose 200 mg/kg (MF)
5. Maltose 2 g/kg+D-psicose 200 mg/kg (MP)
6. Maltose 2 g/kg+(fructose 150 mg/kg+psicose 50 mg/kg) (MFP)
(§2) Before the administration and 30, 60, 90, 120 and 180 minutes after the administration, plasma glucose level was assayed. The plasma glucose level 180 minutes later was used to calculate the area under the curve of plasma glucose level (ΔAUC).

Male Wistar rats [1] = experiment: Soluble starch administration experiment, plasma glucose; type: in vivo, rat; conditions: for Plasma glucose level, 0 min: before soluble starch 2 g/kg + test sugar 200 mg/kg; for Plasma glucose level, 30 min / Plasma glucose level, 60 min / Plasma glucose level, 90 min / Plasma glucose level, 120 min / ΔAUC of plasma glucose level: soluble starch 2 g/kg + test sugar 200 mg/kg; for action to suppress the increase of blood glucose level: given simultaneously with soluble starch (experiment 3)
Method: as §1
1. Soluble starch 2 g/kg (SS)
2. Soluble starch 2 g/kg+L-arabinose 200 mg/kg (SSA)
3. Soluble starch 2 g/kg+D-xylose 200 mg/kg (SSX)
4. Soluble starch 2 g/kg+D-fructose 200 mg/kg (SSF)
5. Soluble starch 2 g/kg+D-psicose 200 mg/kg (SSP)
6. Soluble starch 2 g/kg+(fructose 150 mg/kg+psicose 50 mg/kg) (SSFP)
as §2

[2] = test system: diabetic rats (fatty Zucker rats); conditions: cited from earlier work
Male Wistar rats [3] = experiment: Oral glucose tolerance test: influence of D-psicose on the reaction of increasing blood glucose; type: in vivo, rat; conditions: for blood glucose level compared with single administration of D-glucose: minutes after administration; for increase of the blood glucose level: oral D-glucose 2 g/kg with test sugar 0.32 g/kg (16% of D-glucose) simultaneously
Method: Male Wistar rats of age 6 months were fed ad libitum under a condition that the bright cycle was at a temperature of 25° C. and a humidity of 50 to 70% from 8:00 am to 20:00 pm, for preliminary feeding for one week. On the day before the experiment, the rats were fasted for 12 hours and subsequently orally given D-glucose at 2 g/kg (in the form of 50% glucose solution) using a probe. Blood was drawn before the dosing and 30, 60, 90, 120, 150 and 180 minutes after the dosing. Blood glucose level was measured with a blood glucose meter. Alternatively, D-fructose or D-psicose at 0.32 g/kg (at 16% of D-glucose) was simultaneously given with D-glucose at 2 g/kg. In the same manner, blood glucose level was measured. Based on the resulting blood glucose levels, the area under the curve of blood glucose level (ΔAUC) was calculated.

pancreatic island cells = conditions: in vitro; cited from earlier work
Male Wistar rats [4] = experiment: Influence of D-psicose diet on liver weight and composition (16-week feeding); type: in vivo, rat; conditions: 16 weeks
Method: Twenty-four male Wistar rats of age 3 weeks were fed ad libitum under a condition that the bright cycle was at a temperature of 25° C. and a humidity of 50 to 70% from 8:00 am to 20:00 pm, for preliminary feeding for one week. Subsequently, the rats were divided into 4 groups, each group consisting of 6 rats. The groups were defined a high fat/D-psicose diet (HF-P) group; a high fat/cellulose diet (HF-C) group; a low fat/D-psicose diet (LF-P) group; and a low fat/cellulose diet (LF-C) group. 20% beef fat and 5% soybean oil were used to prepare the high fat diets. 5% soybean oil was used to prepare the low fat diets. 5% D-psicose or cellulose was added to the individual diets. These rats were fed these experimental diets and water ad libitum for 16 weeks. On the last day of the experiment, the rats were decapitated and sacrificed to death, from which liver, flounder muscle and intraperitoneal fat tissues were resected. Glycogen, neutral fat and protein were assayed in the liver, while glycogen content was assayed in the flounder muscle. [table]

Male Wistar rats [5] = experiment: Intra-day variation of plasma glucose concentration in rats fed 5% sugar diets; type: in vivo, rat; conditions: 5% in diet, fed twice daily for 8 weeks
Source text: Forty male Wistar rats of age 3 weeks were preliminarily fed for one week and then divided into 4 groups. Then, a control diet (AIN-76A), and the control diet with addition of 5% D-fructose, the control diet with addition of 5% D-psicose, and the control diet with addition of 5% psico-rare sugar were fed to the rats, twice daily (at 8 to 9 am and at 20 to 21 pm) ad libitum for 8 weeks. At 2 am, 6 am, 10 am, 14 pm, 18 pm and 22 pm on the week 7 or 8 of the feeding, blood was drawn from the tail veins of the rats. Plasma was separated from the blood to assay glucose concentration.

liver [6] = conditions: D-psicose added up to 20% of the weight of the feeds; cited from earlier work
α-glucosidase = conditions: in vitro; cited from earlier work
liver [7] = conditions: in vivo; cited from earlier work
liver [8] = conditions: in vivo; cited from earlier work; remark: listed apart in the source
[9] = D-glucose 2 g/kg + 0.32 g/kg test sugar

T1 sequence (P23739 whole entry): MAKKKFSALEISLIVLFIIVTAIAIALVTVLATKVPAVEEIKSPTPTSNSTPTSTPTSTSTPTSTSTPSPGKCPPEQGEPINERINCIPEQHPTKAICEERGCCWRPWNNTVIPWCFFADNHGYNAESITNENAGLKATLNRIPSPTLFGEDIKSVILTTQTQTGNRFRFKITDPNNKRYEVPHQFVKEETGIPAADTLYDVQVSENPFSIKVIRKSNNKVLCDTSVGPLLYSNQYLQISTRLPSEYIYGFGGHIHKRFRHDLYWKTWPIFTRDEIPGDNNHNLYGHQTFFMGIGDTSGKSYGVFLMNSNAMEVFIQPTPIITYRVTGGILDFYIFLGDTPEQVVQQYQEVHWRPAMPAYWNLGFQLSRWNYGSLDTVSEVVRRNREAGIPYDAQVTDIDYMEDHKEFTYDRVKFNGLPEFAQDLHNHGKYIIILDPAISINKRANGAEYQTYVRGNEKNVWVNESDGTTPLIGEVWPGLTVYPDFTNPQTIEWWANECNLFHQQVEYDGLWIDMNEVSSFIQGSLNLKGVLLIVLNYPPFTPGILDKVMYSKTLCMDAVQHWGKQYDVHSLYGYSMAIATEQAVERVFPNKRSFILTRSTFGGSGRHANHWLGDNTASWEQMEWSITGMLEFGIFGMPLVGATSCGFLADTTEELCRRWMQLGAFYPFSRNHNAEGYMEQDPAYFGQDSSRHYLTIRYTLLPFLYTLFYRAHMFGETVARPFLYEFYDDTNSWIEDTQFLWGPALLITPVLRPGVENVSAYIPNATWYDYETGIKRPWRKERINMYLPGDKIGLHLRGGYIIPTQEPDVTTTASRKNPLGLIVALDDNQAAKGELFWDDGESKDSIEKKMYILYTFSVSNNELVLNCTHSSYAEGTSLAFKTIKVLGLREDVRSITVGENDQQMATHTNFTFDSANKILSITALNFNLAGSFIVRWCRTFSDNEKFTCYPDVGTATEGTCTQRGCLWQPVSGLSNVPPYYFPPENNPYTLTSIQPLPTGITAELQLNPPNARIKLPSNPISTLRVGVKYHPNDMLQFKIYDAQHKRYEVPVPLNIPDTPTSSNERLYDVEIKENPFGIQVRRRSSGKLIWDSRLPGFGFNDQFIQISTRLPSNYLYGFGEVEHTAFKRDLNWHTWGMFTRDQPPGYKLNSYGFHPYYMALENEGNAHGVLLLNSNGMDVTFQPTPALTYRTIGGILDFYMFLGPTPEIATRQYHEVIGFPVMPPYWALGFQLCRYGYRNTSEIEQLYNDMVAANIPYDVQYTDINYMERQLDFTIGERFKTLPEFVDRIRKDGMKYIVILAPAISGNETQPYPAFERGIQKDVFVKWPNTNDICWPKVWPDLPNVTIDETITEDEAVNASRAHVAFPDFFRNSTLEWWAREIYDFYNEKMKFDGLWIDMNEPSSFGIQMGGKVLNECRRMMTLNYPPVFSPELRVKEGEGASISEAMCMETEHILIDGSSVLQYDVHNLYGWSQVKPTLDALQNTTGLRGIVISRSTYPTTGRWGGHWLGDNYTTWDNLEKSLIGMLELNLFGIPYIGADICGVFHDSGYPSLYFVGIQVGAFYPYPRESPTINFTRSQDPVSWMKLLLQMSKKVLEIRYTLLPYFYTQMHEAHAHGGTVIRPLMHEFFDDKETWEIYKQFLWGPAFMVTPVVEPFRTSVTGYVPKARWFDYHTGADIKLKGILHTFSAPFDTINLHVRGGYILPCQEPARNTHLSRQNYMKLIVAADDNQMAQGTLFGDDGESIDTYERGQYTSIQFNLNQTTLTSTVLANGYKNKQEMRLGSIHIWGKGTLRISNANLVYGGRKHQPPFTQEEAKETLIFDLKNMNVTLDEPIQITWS

Compound: O=C(CO)[C@H](O)[C@H](O)[C@H](O)CO [D-psicose]
insulin secretion from pancreatic island cells (pancreatic island cells): promoted | Plasma glucose level, 0 min (sucrase): 89 mg/dL | increase of blood glucose level up to 60 minutes after the administration, compared with sucrose alone (sucrase; given simultaneously with sucrose): suppressed | Plasma glucose level, 30 min (sucrase): 128 ± 12 ab mg/dl | Plasma glucose level, 60 min (sucrase): 139 ± 13 ab mg/dl | Plasma glucose level, 90 min (sucrase): 150 ± 20 a mg/dl | Plasma glucose level, 120 min (sucrase): 143 ± 28 mg/dL | ΔAUC of plasma glucose level (sucrase): 5339 min^− mg/dl | Plasma glucose level, 0 min (maltase): 82 ± 8 mg/dL | action to suppress the increase of blood glucose level (maltase): the effect was low | Plasma glucose level, 30 min (maltase): 125 ± 21 mg/dL | Plasma glucose level, 60 min (maltase): 147 ± 16 b mg/dl | Plasma glucose level, 90 min (maltase): 146 ± 14 mg/dL | Plasma glucose level, 120 min (maltase): 132 ± 13 mg/dL | ΔAUC of plasma glucose level (maltase): 5887 min^− mg/dl | liver weight, effect of addition of D-psicose (Male Wistar rats [4]; 5% in diet, irrespective of the fat content, vs cellulose diet): increased | hepatic glycogen content, effect of addition of D-psicose (Male Wistar rats [4]; 5% in diet, vs cellulose diet): tended to increase | protein content per liver, effect of addition of D-psicose (Male Wistar rats [4]; 5% in diet, vs cellulose diet): significantly increased | weight of intraperitoneal fat tissues, effect of addition of D-psicose (Male Wistar rats [4]; 5% in diet, vs cellulose diet): no influence | Flounder muscle weight (Male Wistar rats [4]; high fat diet + 5% D-psicose): 210 ± 8 mg | Liver weight (Male Wistar rats [4]; high fat diet + 5% D-psicose): 9.5 ± 0.5 g | Weight of intraperitoneal fat tissues (Male Wistar rats [4]; high fat diet + 5% D-psicose): 27 ± 2 g | Flounder muscle weight (Male Wistar rats [4]; low fat diet + 5% D-psicose): 209 ± 10 mg | Liver weight (Male Wistar rats [4]; low fat diet + 5% D-psicose): 13.2 ± 0.3 g | Weight of intraperitoneal fat tissues (Male Wistar rats [4]; low fat diet + 5% D-psicose): 23 ± 1 g | Plasma glucose level, 0 min (Male Wistar rats [1]): 91 ± 10 mg/dL | action to suppress the increase of blood glucose level (Male Wistar rats [1]): the effect was low | Plasma glucose level, 30 min (Male Wistar rats [1]): 128 ± 12 mg/dL | Plasma glucose level, 60 min (Male Wistar rats [1]): 123 ± 21 mg/dL | Plasma glucose level, 90 min (Male Wistar rats [1]): 121 ± 17 mg/dL | Plasma glucose level, 120 min (Male Wistar rats [1]): 122 ± 16 mg/dL | ΔAUC of plasma glucose level (Male Wistar rats [1]): 3344 min^− mg/dl | increment of the area under the curve of plasma glucose concentration (ΔAUC) based on 8 am, compared with control and D-fructose groups (Male Wistar rats [5]): significantly small | plasma glucose concentration compared with the control group and the D-fructose group (Male Wistar rats [5]; week 7 or 8): low throughout the day | liver weight per body weight (liver [6]): tended to increase | α-glucosidase inhibition (α-glucosidase): inhibits | increasing rate of blood glucose level compared with D-fructose (Male Wistar rats [3]; [9]): likely reduced | ΔAUC of blood glucose level compared with single D-glucose administration (Male Wistar rats [3]; [9]): significantly low | blood glucose level compared with single administration of D-glucose (Male Wistar rats [3]; [9]): significantly low in 60, 90 and 120 minutes | increase of the blood glucose level (Male Wistar rats [3]): suppressed | toxicity causing the deterioration of the hepatic function (liver [7]): no toxicity

Compound: O=C(CO)[C@@H](O)[C@@H](O)[C@H](O)CO [D-tagatose]
histological change of liver (liver [8]): never involved any histological change of liver

More lines, main results first:

Plasma glucose level, 0 min (sucrase): 97 mg/dL | Plasma glucose level, 30 min (sucrase): 134 ± 13 ab mg/dl | Plasma glucose level, 60 min (sucrase): 148 ± 12 ab mg/dl | Plasma glucose level, 90 min (sucrase): 147 ± 9 ab mg/dl | Plasma glucose level, 120 min (sucrase): 141 ± 7 mg/dL | ΔAUC of plasma glucose level (sucrase): 4732 min^− mg/dl
Compound: O=C(CO)[C@@H](O)[C@H](O)[C@H](O)CO [D-fructose]
Plasma glucose level, 0 min (maltase): 81 ± 10 mg/dL | Plasma glucose level, 30 min (maltase): 139 ± 15 mg/dL | Plasma glucose level, 60 min (maltase): 156 ± 20 ab mg/dl | Plasma glucose level, 90 min (maltase): 152 ± 10 mg/dL | Plasma glucose level, 120 min (maltase): 142 ± 12 mg/dL | ΔAUC of plasma glucose level (maltase): 7031 min^− mg/dl | Plasma glucose level, 0 min (Male Wistar rats [1]): 92 ± 4 mg/dL | Plasma glucose level, 30 min (Male Wistar rats [1]): 130 ± 15 mg/dL | Plasma glucose level, 60 min (Male Wistar rats [1]): 137 ± 21 mg/dL | Plasma glucose level, 90 min (Male Wistar rats [1]): 132 ± 13 mg/dL | Plasma glucose level, 120 min (Male Wistar rats [1]): 130 ± 13 mg/dL | ΔAUC of plasma glucose level (Male Wistar rats [1]): 4243 min^− mg/dl | reaction of increasing blood glucose via D-glucose and maltodextrin [2]: suppressed | ΔAUC of blood glucose level compared with single D-glucose administration (Male Wistar rats [3]; [9]): significantly low | blood glucose level compared with single administration of D-glucose (Male Wistar rats [3]; [9]): significantly low in 90 and 120 minutes | increase of the blood glucose level (Male Wistar rats [3]): suppressed

Plasma glucose level, 0 min (sucrase): 102 mg/dL | Plasma glucose level, 30 min (sucrase): 123 ± 11 b mg/dl | Plasma glucose level, 60 min (sucrase): 126 ± 12 b mg/dl | Plasma glucose level, 90 min (sucrase): 130 ± 13 b mg/dl | Plasma glucose level, 120 min (sucrase): 137 ± 16 mg/dL | ΔAUC of plasma glucose level (sucrase): 2646 min^− mg/dl
Compound: O=C[C@H](O)[C@@H](O)[C@H](O)CO [D-xylose]
Plasma glucose level, 0 min (maltase): 86 ± 8 mg/dL | action to suppress the increase of blood glucose level (maltase): scarcely suppressed | Plasma glucose level, 30 min (maltase): 146 ± 14 mg/dL | Plasma glucose level, 60 min (maltase): 172 ± 12 a mg/dl | Plasma glucose level, 90 min (maltase): 166 ± 20 mg/dL | Plasma glucose level, 120 min (maltase): 150 ± 19 mg/dL | ΔAUC of plasma glucose level (maltase): 7765 min^− mg/dl | Plasma glucose level, 0 min (Male Wistar rats [1]): 99 ± 10 mg/dL | action to suppress the increase of blood glucose level (Male Wistar rats [1]): scarcely suppressed | Plasma glucose level, 30 min (Male Wistar rats [1]): 141 ± 8 mg/dL | Plasma glucose level, 60 min (Male Wistar rats [1]): 135 ± 12 mg/dL | Plasma glucose level, 90 min (Male Wistar rats [1]): 138 ± 16 mg/dL | Plasma glucose level, 120 min (Male Wistar rats [1]): 131 ± 12 mg/dL | ΔAUC of plasma glucose level (Male Wistar rats [1]): 4040 min^− mg/dl

Plasma glucose level, 0 min (sucrase): 93 mg/dL | Plasma glucose level, 30 min (sucrase): 139 ± 21 ab mg/dl | Plasma glucose level, 60 min (sucrase): 142 ± 21 ab mg/dl | Plasma glucose level, 90 min (sucrase): 139 ± 14 ab mg/dl | Plasma glucose level, 120 min (sucrase): 142 ± 18 mg/dL | ΔAUC of plasma glucose level (sucrase): 4978 min^− mg/dl
Compound: O=C[C@H](O)[C@@H](O)[C@@H](O)CO [L-arabinose]
Plasma glucose level, 0 min (maltase): 89 ± 7 mg/dL | action to suppress the increase of blood glucose level (maltase): scarcely suppressed | Plasma glucose level, 30 min (maltase): 139 ± 16 mg/dL | Plasma glucose level, 60 min (maltase): 157 ± 22 ab mg/dl | Plasma glucose level, 90 min (maltase): 149 ± 21 mg/dL | Plasma glucose level, 120 min (maltase): 138 ± 22 mg/dL | ΔAUC of plasma glucose level (maltase): 6087 min^− mg/dl | Plasma glucose level, 0 min (Male Wistar rats [1]): 97 ± 9 mg/dL | action to suppress the increase of blood glucose level (Male Wistar rats [1]): scarcely suppressed | Plasma glucose level, 30 min (Male Wistar rats [1]): 135 ± 20 mg/dL | Plasma glucose level, 60 min (Male Wistar rats [1]): 129 ± 22 mg/dL | Plasma glucose level, 90 min (Male Wistar rats [1]): 128 ± 22 mg/dL | Plasma glucose level, 120 min (Male Wistar rats [1]): 119 ± 15 mg/dL | ΔAUC of plasma glucose level (Male Wistar rats [1]): 3370 min^− mg/dl
